# Experiment: gradient 5% acetonitrile 3 min, to 50% in 2 min, to 85% in 15 min, held 3 min, 100 µL/min
# Conditions: column: Zorbax Extend-C18 2.1 x 50 mm; eluents: water / acetonitrile, 0.1% formic acid
# Summary of the method: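 Data were gathered over 3 months by HPLC coupled to a quadrupole time-of-flight mass spectrometer, operated in positive and negative ionization mode. Mixtures of ~100 pure standards ran on a Zorbax Extend-C18 column (2.1 × 50 mm, 1.8 μm) at 100 μL/min, with water and acetonitrile each containing 0.1% formic acid and dead and dwell volumes of 40 μL and 900 μL. Retention time was read from adduct peaks picked by computer and checked manually.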
row,Compound,RP-LC retention time [s]
1,CCN1CCN(C(=O)CCc2cc(OC)c(OC)c(OC)c2)c2cccnc21,613
2,CCN1C(=O)c2cccnc2Sc2cc(CNC(=O)c3cccc(C#N)c3)ccc21,756
3,Cc1ccc(-n2nc(CO)c(C(=O)NC(C)C)n2)cc1C,983
4,COc1ccc(CC(=O)NC(C(=O)Nc2nc3ccccc3[nH]2)C(C)C)cc1Cl (centres undefined),733
5,COCCN1C(=O)CCc2cc(NS(=O)(=O)c3cc(C)cc(C)c3)ccc21,816
6,Cc1c(Cl)cccc1NC(=O)NCC(c1cccnc1)c1c[nH]c2ccccc12 (centres undefined),706
7,C#CCOCC1CN(c2ccccc2)C(=O)O1 (centres undefined),833
8,COc1cccc(N2CCN(Cc3nc(-c4ccc(N5CCCC(C)C5)nc4)no3)CC2)c1 (centres undefined),882
9,O=C(Nc1nc(-c2cc([N+](=O)[O-])cs2)cs1)c1coc2ccccc2c1=O,1110
10,O=C(Cc1csc(NC(=O)NC2CCCCC2)n1)NCc1ccco1,695
11,OC1CCC12CCN(Cc1cn[nH]c1-c1ccccc1)CC2 (centres undefined),568
12,COc1ccc2c(c1)c(CN1CCC(C(=O)NCCCN3CCc4ccccc4C3)CC1)cn2C,565
13,CCCC(C)NC(=O)c1ccc(Cl)c(Cl)c1 (centres undefined),1130
14,COc1ccc2cc(C(=O)N3CCC(C(C)C(=O)NCCc4c[nH]c5ccccc45)CC3)[nH]c2c1 (centres undefined),818
15,COc1ccc(C2CC(=O)N(c3cc(C)cc(C)c3)C(=O)C2)cc1OC,891
16,Cc1cccc(-c2noc(Cn3ncn4nc(-c5cc(C)ccc5C)cc4c3=O)n2)c1,1270
17,N#Cc1ccc(-c2nc(-c3nn(CCN4CCOCC4)c4ccccc34)no2)cc1,692
18,CCc1nc2cc(N3CCCC(C(=O)NCCN4CCCC4)C3)cnc2nc1CC (centres undefined),601
19,O=C(Nc1ccc2[nH]nc(-c3ccncc3)c2c1)[C@@H]1CCN(CC(=O)N2CCN(c3ccc(-c4ncccn4)cc3)CC2)C1,628
20,Cn1nc(C(=O)N2CCCC2)c2c1CCN(C(=O)CCC(=O)NCCCN1CCCC1)C2,574
21,CCCNc1cc(N2CCC(CCC(=O)Nc3ccc(OC)cc3)CC2)ncn1,682
22,Cc1cc2[nH]c(=O)[nH]c2cc1S(=O)(=O)N1CCN(Cc2ccccc2)CC1,548
23,Cc1cccc(C2CCCN2C(=O)c2c(Cl)cnn2C)c1 (centres undefined),891

row,Compound,RP-LC retention time [s]
1,COc1cc(N)c(Cl)cc1C(=O)OCCN1CCCCC1,629
2,O=C(Nc1ccc(-c2cn3cccnc3n2)cc1)c1cc(Br)ccc1Cl,707
3,Cn1nc2c(c1NC(=O)Cc1ccc3c(c1)OCO3)CCC2,644
4,COCCN1C(=O)Cc2ccccc2C1C(=O)N1CCN(c2cccc(Cl)c2)CC1 (centres undefined),849
5,Cc1nc(-c2nc(-c3cccs3)cs2)cn1CC(=O)N1CCN(c2ccccc2)CC1,813
6,Cc1cccc(NC(=O)Nc2cnc3c(c2)CCC3)c1,578
7,O=C(CN1C(=O)CCCc2cc(S(=O)(=O)N3CCCCC3)ccc21)NCc1ccc(Cl)cc1,926
8,O=C(Cn1cccc1-c1nc(-c2ccc3c(c2)OCO3)no1)NC1CCCCC1,1030
9,O=C(NC1CCCCCC1)c1ccc2ncnc(N3CCCC3)c2c1,675
10,Cc1ccc(N2C(=O)C3N=NN(Cc4nc(-c5ccc6c(c5)OCO6)no4)C3C2=O)cc1 (centres undefined),957
11,CC(C)CC(=O)N1CCCC1c1nc2ccccc2s1 (centres undefined),887
12,CCOC(=O)c1nnc2c(-c3ccccc3)c(C)nn2c1N,828
13,CC(C)Cn1c(=O)c(C(=O)NCc2ccccc2C(F)(F)F)nc2cccnc21,1070
14,CCc1cccc(C)c1Nc1c(-c2ccc(SC)cc2)nc2nc(C)cc(C)n12,867
15,Cc1ccc(-c2noc(C(=O)N3CCCC3)n2)cc1S(=O)(=O)N1CCN(c2ccccn2)CC1,700
16,COc1ccc(-c2ccc(CNCC3CCNCC3)o2)cc1Cl,579
17,CC(C)Oc1ccccc1CN1C[C@@H](CO)[C@H](c2ccncc2)C1,569
18,COc1ccc(OC)c(NC(=O)Cc2cccn2-c2ccc(Cl)cc2)c1,1080
19,O=C(CN1C(=O)C2CCCCN2c2ccc(C(=O)N3CCCC3)cc21)NCc1ccco1 (centres undefined),724
20,COc1cccc(-c2cn3ccn(-c4ccccc4OC)c(=O)c3n2)c1,780
21,CCCCS(=O)(=O)N1CCc2c(c(-c3nnc(SCC)n3CC)nn2C)C1,878
22,O=C(C1CCCC1)N1CCC(CCOc2ccncc2)CC1,616
23,CCc1nnc2ccc(NC(=O)Nc3cccc(F)c3)cn12,710

row,Compound,RP-LC retention time [s]
1,CCCNC(=O)C1CCN(c2ccc(SCC(=O)Nc3ccc(Br)cc3)nn2)CC1,689
2,CCc1nnc2nc(N3CCN(C(=O)c4ccccc4)CC3)cc(C)n12,597
3,CCCN(C)c1nccn2c(=O)n(CC(=O)Nc3cc(C)ccc3C)nc12,696
4,COc1ccc(CCN2CC(C(=O)N3CCN(C(C)C)CC3)CC2=O)cc1OC (centres undefined),553
5,COc1ccc(C2(C(=O)N3CCCOCCNC(=O)[C@@H]4CCCC[C@@H]43)CC2)cc1,750
6,Cc1ccc(Cl)cc1-n1ccnc(NC(=O)Nc2ccccc2)c1=O,1020
7,Cc1ccc(C)c(-c2cc(C(=O)N3CCN(C)CC3)[nH]n2)c1,621
8,Cc1c(F)cccc1NS(=O)(=O)c1cc(-c2nc(C(C)(C)C)cs2)cs1,1310
9,Cn1nnc2ccc(-c3noc(CNC(=O)c4cccs4)n3)cc21,712
10,Cc1ccccc1NC(=O)N1CCC(c2nc(C(=O)N3CCCC3)c(C)o2)CC1,732
11,CC1CCCN(CC2CCN(C(=O)Nc3ccc(F)cc3)CC2)C1 (centres undefined),608
12,Cc1sc(NC(=O)c2cccc(Cl)c2)nc1-c1ccc2c(c1)NC(=O)CO2,968
13,CCOC(=O)COC(=O)c1cn(-c2ccc(OC)cc2)c(=O)c2ccccc12,1010
14,COc1ccccc1OCC(=O)Nc1ccc2c(c1)Sc1ncccc1C(=O)N2C(C)C,883
15,CCCN1C(=O)c2c(C(=O)NCc3ccccc3Cl)ncn2CC1(C)C(=O)NC1CCCC1 (centres undefined),868
16,COc1cccc(-c2nc(-c3ccc4ncn(C(C)C)c4c3)no2)c1OC,766
17,CCn1cc(CCNC(=O)Nc2ccc(Br)cc2F)c2cccnc21,838
18,O=S(=O)(Oc1ccc(Cl)cc1)c1cccc2cccnc12,1050
19,CC1=NOC(C)(CNC(=O)NC(C)(C)C)C1 (centres undefined),627
20,COc1ccc(Nc2c(-c3nc(C)no3)cnc3nc(C)ccc23)c(OC)c1,692
21,O=C(NCc1cccnc1)c1ccc2ccnc(N3CCN(C(=O)c4ccco4)CC3)c2c1,563
22,COc1ccc(CN2C[C@@H]3C(=O)N(Cc4ccc5c(c4)OCO5)C(=O)[C@@H]3C2)c(OC)c1,691
23,CCc1nc(-c2csc(S(=O)(=O)N3CCCC(C(=O)Nc4cccc(Cl)c4)C3)c2)no1 (centres undefined),1040

row,Compound,RP-LC retention time [s]
1,CCOC(=O)CSc1nnc(NC(=O)C2CC(=O)N(c3ccc(F)cc3)C2)s1 (centres undefined),712
2,COc1cc2c(cc1OC)C(C(=O)NCc1cccnc1)C(c1ccc(SC)cc1)N(C)C2=O (centres undefined),630
3,O=C(Cc1c[nH]c2ccccc12)N1CCC(Oc2ccc(-c3noc(C4CC4)n3)cc2)C1 (centres undefined),964
4,CN(C)S(=O)(=O)c1ccc(-c2nnc(C(=O)NCc3ccncc3)o2)cc1,604
5,CCCS(=O)(=O)N1CCC(OCCOCc2ccccc2)CC1,937
6,CCOCCCNC(=O)C1c2ccccc2C(=O)N(C2CCCC2)C1c1cccs1 (centres undefined),882
7,CCOC(=O)c1ccc(NC(=O)Cn2ccc3ccc(-c4nnc(C)o4)cc32)cc1,944
8,COc1ccccc1NC(=O)c1cc2c(s1)CN(C(C)C)C2,614
9,CCNC(=O)C1CCc2sc(C(=O)N3CCCC3)cc2C1 (centres undefined),663
10,COc1ccc(NC(=O)C2CCc3sc(C(=O)N(C)C)cc3C2)cc1 (centres undefined),663
11,CCC(C)NC(=O)c1ccc2c(c1)CCCN2S(C)(=O)=O (centres undefined),754
12,Cc1ccc(C)c(Nc2c(-c3ccc(O)cc3)nc3ncccn23)c1,664
13,Cc1ccc(-c2noc(-c3nc(Cc4ccc(F)cc4)no3)n2)cc1,1180
14,Cc1ccc(C)c(N2CCN(C(=O)Cn3nc(C(=O)N4CCCCC4)c4ccccc43)CC2)c1,1100
15,COc1ccc(CCc2nc3nccc(-c4ccc(OC)c(OC)c4)n3n2)cc1OC,781
16,O=C(NCCn1ncccc1=O)c1ccc(N2CCCC2)nn1,522
17,Cc1cccc(C)c1NC(=O)N1CC(n2cnnc2-c2ccccc2)C1,715
18,Cc1ccc(C)c(NC(=O)C2CCN(S(C)(=O)=O)c3cc(Cl)ccc3O2)c1 (centres undefined),935
19,O=C(NCc1ccc(F)cc1)c1ccc2c(c1)Sc1ncccc1C(=O)N2C1CC1,791
20,Cc1ccc2nc(-c3ccccc3NC(=O)c3ccc(Br)o3)[nH]c2c1,1140
